Results on two compounds are retold here after patent US20250320443A1, “Human Brain Organoid, methods for making the brain organoid, and methods of using the brain organoid for high throughput rapid screening and/or evaluation of agents” (NeyroblastGX LLC, priority 2023, published 2025).

For series [1], the system named is blood CSF barrier brain OrG (ChP OrG). Nature of the series: ChP OrG drug permeability into CSF (optical density of collected CSF). The class given is cell-based, human. The note with it: 72 h, SLCP Cur 500 μM, CSF collected via syringe. As to the method:
(§1) FIG. 6A-6H. ChP OrG efficiently screens drug permeability. (FIG. 6A) We have used curcumin (Cur), a natural polyphenolic antioxidant that can disaggregate Amyloid beta (AB) and tau. (FIG. 6B) We have prepared the Cur with H2O and lipids to generate a solid lipid curcumin particle (SLCP). […] (FIG. 6D-6F) We added SLCP and non-formulated (H2O dissolved) Cur to the blood CSF barrier brain OrG (ChP OrG) for 72 h and obtained images. (FIG. 6G) We then collected CSF via a syringe and processed it to measure optical density using a plate reader to determine whether SLCP Cur (500 μM) was permeable into CSF. […] Our novel B-CSFb grown on an HT electrode plate is highly efficient in studying drug permeability on the HT scale and provides insight into using our ChP OrG to accelerate the drug development process for various CNS diseases. Scale bar 100 μm.
To generate ChP OrG, we use methods similar to those used to generate cCerebral OrG, except for the composition of OrGspheroid SRB media, which contained 50% KSR, 0.1% lipid-rich albumin (AlbuMAX), including all other components as stated in Example 1. For ChP OrG, neural induction was up to 9 days. Neural induction medium was the same as Example 2. Further, neural-induced OrGspheroid (>500 μm) was seeded with gel-matrix domes with a volume of OrGspheroid to MvECs at a 1:20 ratio. […]

Series [2] can be described thus: Preparation of curcumin with H2O (visual). The conditions noted are these: glass vial, non-formulated. The class given is physicochemical. The method, then:
as §1

Series [3] relates to synaptophysin and PSD-95 in cCerebral OrG. Nature of the series: ICC of synaptic marker proteins in cCerebral OrG injected with AD toxic proteins. The class given is cell-based, human. The note with it: AB or tau alone, injected twice with 10-50 μl (1 mg/ml). The method, then:
FIG. 8A-8D. Verify compatibility to screening NGL ready-to-use brain OrG in other screening platforms with multiple agents. (FIG. 8A) NGL cCerebral was injected twice with 10-50 μl (1 mg/ml) of Alzheimer's disease (AD) toxic proteins (AB and tau oligomers). (FIG. 8B) We found AB and tau together, especially 50 μg concentration, reduced in higher levels of pre- and post-synaptic density marker proteins (synaptophysin and PSD-95) compared to 10 μg concentrations using ICC. […] (FIG. 8C) We compared synaptic loss with the electrode plate signal developed by Applied Biophysics (ABP). We have plated our cCerebral OrG onto ABP electrodes with gel-matrix twice coating to attach efficiently onto cCerebral OrG onto electrodes. Usually, marketed electrode attaching floating OrG tends to be challenging. OrG often slips or moves away from the electrode, thus needing twice or triple-coating layers with gels, providing a great insight into our floating electrode plate novelty compared to other marketed electrodes. After the cCerebral OrG attachment was maintained and grown on the electrode plate for one week and treated with or without the combination of AB and tau (10 and 50 μg).
ICC is a common cellular protein or antigen-detecting and visualization technique that can recognize the target of interest or specific marker expression in cells via quantification imaging. […]

For the next series, the system named is brain OrG. The experiment in a line: NGL HT electrode plate signal of brain OrG. The class given is cell-based, human. The conditions noted are these: 64000 Hz. An excerpt: HT electroconductive sensing array combined with our optimized brain OrG is the first innovative technology that can be marketed for floating brain OrG for screening pathogens, drugs, and toxicity at a rapid and robust scale. Brain OrG-specific shape 1-3 mm range grown on an electroconductive plate designed and developed by NGL with pay-based service to obtain ECIS base electrode with a desired signal with or without agents. ECIS here refers to electric cell-substrate impedance sensing. We first developed 8 well plates with an electrode. […] We used a nanofarads capacitance (nF) signal curve at 64000 Hz. We determined that the media sample (without OrG, baseline) average signal is 3.7 nF compared to cerebral OrG (˜2 nF), and the same measurement was also acquired by resistance (Ohms).
To determine HT screening various agents, we designed and developed a next-generation HT electrode plate where brain OrG can grow in floating conditions with electrode chambers that can control OrG size without batch-to-batch variations. To develop these electrode sensor chambers (FIG. 7A-7B), we have designed and developed a typical 8×12 configuration that allows 96 samples to be measured and can be upgraded to 384 wells. […] These converters will sample at four times the excitation frequency, thus allowing both the amplitude and phase of the signal at V1 to V2 be measured with an algorithm.

`COc1cc(/C=C/C(=O)CC(=O)/C=C/c2ccc(O)c(OC)c2)ccc1O` [non-formulated Cur, curcumin]: the results for the “Cur concentration in CSF (permeable into CSF / B-CSFb)” value in series [1] and in series [1] (listed as unformulated Cur) were “not detected in CSF” and “undetected in CSF”, respectively. Also, the “behaviour when prepared with H2O” value in series [2] was “precipitated on the bottom of the glass vial”.

Consider “AB: synthetic amyloid-beta (AB) oligomers, Alzheimer's disease toxic protein”, for which, in series [3], the “synaptic proteins (synaptophysin and PSD-95)” value is given as “unable to significantly reduce synaptic proteins”. In addition, the “brain OrG-derived toxic response signal compared to untreated brain OrG” value with brain OrG is “significantly and sensitively differentiated”.
